# Assay results from patent US5693608A, “Method of administering a biologically active substance” (Bechgaard International Research and Development A/S, priority 1990, dated 1997).
# “Also recorded” adds a separate entry of the source.
# Experiments:
# rabbit nasal cavity = test: Acute toxicological study, rabbit nasal cavity 10 minutes after intranasal application; assay type: in vivo; conditions: for Microscopic Observations (Left Cavity): Table 8, individual rabbit
# Method: This study was conducted in order to observe acute changes in the rabbit nasal cavity after a single dose of vehicle in each nasal cavity.
# 16 rabbits were randomized into 4 groups of 4 rabbits each. 3 groups received a single intranasal application of one of the test vehicles, 50 μl into each nasal cavity. Each rabbit received only one test compound. One group served as a control receiving the same volume of isotonic sodium chloride saline. 10 minutes after application the rabbits were sacrificed and bled. The right nasal cavity was then opened and evaluated macroscopically. The evaluator was blind as to the dosing scheme. The left nasal cavity was dissected and fixed in neutral buffered formalin for histological evaluation.
# [1] = Volume of aqueous solution needed to dissolve clinically relevant dose; assay type: physicochemical
# rabbits = test: Pharmacodynamic response, enhanced by GF (Example 3); conditions: intranasal 0.25 mg clonazepam in 100 μl
# Method: The pharmacodynamic response was tested in New Zealand White rabbits after application of 50 μl of 2.5 mg clonazepam/ml vehicle into each nostril while they were in sitting position. […] Clonazepam was dissolved by ultrasonification.
# [2] = Plasma clonazepam after intranasal administration in vehicle B (Example 2); assay type: in vivo, New Zealand White rabbits
# Method: 50 μl of his preparation was administered into each nasal cavity of male New Zealand White rabbits, held in a supine position during and 1 minute after the application. An Eppendorph pipette was used for the application.
# [3] = intranasal, adults; cited from earlier work
# children = conditions: intranasal, 45 children; cited from earlier work
# [4] = nasal gel, rats; cited from earlier work
# blood glucose level [5] = test: Blood glucose after intranasal glucagon in hypoglycaemic rabbits (Example 5); assay type: in vivo, New Zealand White rabbits
# Method: 4 mg human glucagon in 100 μl phosphate buffer (pH 4) containing 5% GF was applied into both nostrils (50 μl into each) of 5 sitting hypoglycaemic New Zealand White rabbits, weighing about 3 kg. The formulation was prepared by dissolving glucagon in a 7 mM phosphate buffer (pH 2.5), adjusting the pH to 4.0 with 0.1N sodium hydroxide and finally 5% glycofurolum 75 was added. The rabbits were made hypoglycaemic by subcutaneous injection of […] insulin one hour prior to the experiment. Blood samples were continuously withdrawn from the marginal ear vein for blood glucose determination.
# blood glucose level [6] = test: Blood glucose after intranasal insulin (Example 4); assay type: in vivo, New Zealand White rabbits; conditions: rabbits
# Method: 0.33 mg zinc-free (monomeric) human insulin in 50 μl 12.5 mM phosphate buffer (pH 7.4) containing 5% glycofurol 75 was applied into one nostril of 5 sitting New Zealand White rabbits, weighing about 3 kg. Blood samples of 50 μl were withdrawn from the marginal ear vein after 0, 15, 30, 60 and 120 minutes, and blood glucose level was determined.
compound,measurement,setting,value
"CC(O)CO (stereo not shown) [Propylene glycol (PG), propylene glycol]",Microscopic Observations (Left Cavity),rabbit nasal cavity; Level 1,Edema and congestion
same,Microscopic Observations (Left Cavity),rabbit nasal cavity; Level 2,Congestion
same,Microscopic Observations (Left Cavity),rabbit nasal cavity; Level 3,Lymphoid aggregates; also recorded: Dilatation of venules
same,Microscopic Observations (Left Cavity),rabbit nasal cavity; Level 4,Area of chronic inflammation
same,Microscopic Results (Left side),"rabbit nasal cavity; Table 9 summary, 10 minutes after application, per animal",Focal haemorrhage
O=C1CN=C(c2ccccc2Cl)c2cc([N+](=O)[O-])ccc2N1 [clonazepam],volume of aqueous solution to dissolve clinically relevant dose,[1],> 10 mL
same,time to pharmacodynamic response,rabbits,less than 2 minutes
same,plasma concentration versus i.v. injection (in words),"[2]; 0.5 mg, at about 2 minutes","about the same or even higher, at about 2 minutes, than for an i.v. injection"
same,"plasma concentration after 2 1/2 minutes, % of i.v. (CpL(21/2 min))",[2]; FIG. 1,about 100%
same,Tmax,"[2]; rabbit, plasma, 0.5 mg, FIG. 1, read-out: peak clonazepam plasma concentration (tmax)",2 to 3 min
CN1C(=O)CN=C(c2ccccc2)c2cc(Cl)ccc21 [diazepam],peak concentration with reference to i.v. administration,[3],about 27%
O=C1Nc2ccc(Cl)cc2C(c2ccccc2Cl)=NC1O (stereo not shown) [lorazepam],time to peak concentration,[3],2.3 h
Cc1ncc2n1-c1ccc(Cl)cc1C(c1ccccc1F)=NC2 [midazolam],adverse reaction (in words),children,coughing and sneezing with expulsion of part of the dose
COC(=O)C1=C(C)NC(C)=C(C(=O)OC)C1c1ccccc1[N+](=O)[O-] [nifedipine],plasma peak concentration compared with intravenous administration,[4],≤ 10%
glucagon: human glucagon in phosphate buffer (pH 4) containing 5% GF,"pronounced biological response (blood glucose), time after application",blood glucose level [5],15-30 minutes
insulin: zinc-free (monomeric) human insulin in phosphate buffer (pH 7.4) containing 5% glycofurol 75,"pronounced biological response (blood glucose), time after application",blood glucose level [6],15-30 minutes
